The values that follow come from patent US10927107B2, “Phenyl [a]indole[2,3-g]quinolizine compounds, preparation method therefor, pharmaceutical composition, and applications thereof” (Shanghai Institute of Materia Medica, Chinese Academy of …, priority 2016, dated 2021).

Molecules are shown by their SMILES.

The subject of this assay is HepG2 cells. The assay can be described thus: In vitro lipid-lowering activity: DiI-LDL uptake in HepG2 cells. In kind it is cell-based. Conditions: Homo sapiens, test compound 5 uM, 24 h, DiI-LDL 20 ug/ml, 3 h, FLU of sample group/FLU of blank group x100%, read-out: LDL uptake rate. The protocol:
HepG2 cells were inoculated in 24-well plates, cultured in DMEM containing 10% FBS for 24 h or 48 h, and then transferred to DMEM containing 2% defatted serum and cultivated for 24 h. The old culture solution was discarded and replaced with new 2% defatted serum DMEM, and a test compound (the working concentration of which is 5 uM, triplicate for each sample) was added and incubated for 24 h. The old culture solution was abandoned and DMEM containing DiI-LDL (20 ug/ml) was added (300 ul/per 24 wells), incubated for 3 h. DMEM containing DiI-LDL was discarded, and cells were rinsed twice with PBS containing 0.4% BSA, and 3 times with PBS to remove excess DiI-LDL. Isopropanol was added (500 ul/per well of a 24-well plate), and was kept in darkness. After shaken for 20 minutes, 200 ul of supernatant was sucked to a black fluorescent plate, and fluorescence intensity (FLU) was detected at excitation light 520 nm and emission light 578 nm. The experimental results were calculated: LDL uptake rate=(FLU value of sample group to be tested/FLU value of blank group)×100%.
For `COc1cc2c(cc1OCc1ccc(C)cc1)C1Cc3c([nH]c4ccccc34)C(c3ccc(F)cc3)N1CC2` (centres unmarked) [Example B16, 8-(4-Fluorophenyl)-3-methoxy-2-((4-methylbenzyl)oxo)-5,6,8,9,14,14a-hexahydroindolo[3′,2′:4,5]pyridine[2,1-a]isoquinoline], the activity at 5 µM was found to be 107%.

Turning to `COc1cc2c(cc1OCc1ccccc1F)C1Cc3c([nH]c4ccccc34)C(c3ccc(F)cc3)N1CC2` (centres unmarked) [Example B10, 2-((2-fluorobenzyl)oxo)-8-(4-fluorophenyl)-3-methoxy-5,6,8,9,14,14a-hexahydroindole[3′,2′: 4,5]pyridine[2,1-a]isoquinoline], the activity at 5 µM came to 108%.

As to `OCn1c2c(c3ccccc31)CC1c3cc4c(cc3CCN1C2)OCO4` (centres unmarked) [Example A109, (5,6,14,14a-tetrahydro-[1,3]dioxazo[4,5-g]indolo[3′,2′:4,5]pyridine[2,1-a]isoquinoline-9(8H)-yl)methanol], the activity at 5 µM stood at 100%.

On to `COc1cc2c(cc1OCc1ccc(F)cc1)C1Cc3c([nH]c4ccccc34)C(c3ccc(F)cc3)N1CC2` (centres unmarked) [Example B6, 2-((4-fluorobenzyl)oxo)-8-(4-fluorophenyl)-3-methoxy-5,6,8,9,14,14a-hexahydroindole[3′,2′: 4,5]pyridine[2,1-a]isoquinoline], for which the activity at 5 µM was found to be 108%.

On to `COc1cc2c(cc1OCc1ccc(F)cc1)CCN1Cc3c(c4ccccc4n3CO)CC21` (centres unmarked) [Example A60], for which the activity at 5 µM worked out at 108%.

With `COc1ccc2[nH]c3c(c2c1)C[C@H]1c2cc(OC)c(OCc4ccc(C(F)(F)F)cc4)cc2CCN1C3` [(S)-C47, (S)-2,12-Dimethoxy-3-((4-(trifluoromethyl)benzyl)oxo)-5,6,8,9,14,14a-hexahydroindolo[3′,2′:4,5]pyrido[2,1-a]isoquinoline], the activity at 5 µM stood at 273%.

As to `COc1cc2c(cc1OCc1ccccc1F)C1Cc3c(n(CO)c4ccccc34)CN1CC2` (centres unmarked) [Example A10, (2-((2-fluorobenzyl)oxy)-3-methoxy-5,6,14,14a-tetrahydroindolo[3′,2′:4,5]pyridine[2,1-a]isoquinoline-9(8H)-yl)methanol], the activity at 5 µM came to 108%.

Consider `COc1ccc2[nH]c3c(c2c1)CC1c2cc(OCc4ccccc4F)c(OC)cc2CCN1C3c1ccc(F)cc1` (centres unmarked) [Example B9, 2-((2-fluorobenzyl)oxo)-8-(4-fluorophenyl)-3,12-dimethoxy-5,6,8,9,14,14a-hexahydroindole[3′,2′:4,5]pyridine[2,1-a]isoquinoline], for which the activity at 5 µM was 94.3%.

`CCOc1ccccc1OCCN[C@H](C)Cc1ccc(OC)c(S(N)(=O)=O)c1` [Positive control, Tamsulosin, reference compound]: the activity at 5 µM stood at 138%.

Regarding `COc1ccc2c(c1)c1c(n2CO)CN2CCc3cc(OCc4ccc(C(F)(F)F)cc4)c(OC)cc3C2C1` (centres unmarked) [Example A57, (2,12-Dimethoxy-3-((4-(trifluoromethyl)benzyl)oxy)-5,6,14,14a-tetrahydroindolo[3′,2′:4,5]pyridine[2,1-a]isoquinoline-9(8H)-yl)methanol], the activity at 5 µM was determined as 112%.

With `COc1cc2c(cc1OCc1ccc(F)cc1)CCN1C2Cc2c([nH]c3ccccc23)C1c1ccc(F)cc1` (centres unmarked) [Example B60, 3-((4-fluorobenzyl)oxo)-8-(4-fluorophenyl)-2-methoxy-5,6,8,9,14,14a-hexahydroindole[3′,2′: 4,5]pyridine[2,1-a]isoquinoline], the activity at 5 µM was 114%.

`COc1cccc(COc2cc3c(cc2OC)CCN2Cc4c(c5cc(OC)ccc5n4CO)CC32)c1` (centres unmarked) [Example A13, (3,12-Dimethoxy-2-((3-methoxybenzyl)oxo)-5,6,14,14a-tetrahydroindolo[3′,2′:4,5]pyridine[2,1-a]isoquinoline-9(8H)-yl)methanol]: the activity at 5 µM was determined as 107%.

For `COc1cc2c(cc1OC)C1Cc3c(n(CO)c4ccccc34)CN1CC2` (centres unmarked) [Example A38, (2,3-dimethoxy-5,6,14,14a-tetrahydroindolo[3′,2′:4,5]pyridine[2,1-a]isoquinoline-9(8H)-yl)methanol], the activity at 5 µM was determined as 123%.

In the case of `COc1ccc2c(c1)c1c(n2CO)CN2CCc3cc(OCc4ccccc4)c(OC)cc3[C@H]2C1` [(R)-A55], the activity at 5 µM is 200%.

As for `COc1ccc2[nH]c3c(c2c1)CC1c2cc(OCc4ccc(C)cc4)c(OC)cc2CCN1C3c1ccc(F)cc1` (centres unmarked) [Example B15, 8-(4-Fluorophenyl)-3,12-dimethoxy-2-((4-methylbenzyl)oxo)-5,6,8,9,14,14a-hexahydroindolo[3′,2′:4,5]pyridine[2,1-a]isoquinoline], the activity at 5 µM came to 111%.

In the case of `COc1ccc2[nH]c3c(c2c1)CC1c2cc(OC)c(OCc4ccc(F)cc4)cc2CCN1C3c1ccc(F)cc1` (centres unmarked) [Example B59, 3-((4-fluorobenzyl)oxo)-8-(4-fluorophenyl)-2,12-dimethoxy-5,6,8,9,14,14a-hexahydroindole[3′,2′:4,5]pyridine[2,1-a]isoquinoline], the activity at 5 µM is 109%.

On to `COc1cc2c(cc1OCc1ccccc1F)CCN1Cc3[nH]c4ccccc4c3CC21` (centres unmarked) [Example C54, 3-((2-fluorobenzyl)oxo)-2-methoxy-5,6,8,9,14,14a-hexahydroindole[3′,2′:4,5]pyridine[2,1-a]isoquinoline], for which the activity at 5 µM worked out at 110%.

Turning to `COc1cc2c(cc1OCc1ccc(C)cc1)CCN1Cc3[nH]c4ccccc4c3CC21` (centres unmarked) [Example C60], the activity at 5 µM amounted to 84.3%.

For the compound `COc1ccc2c(c1)c1c(n2CO)CN2CCc3cc(OC)c(OC)cc3C2C1` (centres unmarked) [Example A37, (2,3,12-Trimethoxy-5,6,14,14a-tetrahydroindolo[3′,2′:4,5]pyridine[2,1-a]isoquinoline-9(8H)-yl)methanol], the activity at 5 µM is 99.1%.

For the compound `COc1ccc2[nH]c3c(c2c1)CC1c2cc(OC)c(OCc4cccc(F)c4)cc2CCN1C3c1ccc(F)cc1` (centres unmarked) [Example B61, 3-((3-fluorobenzyl)oxo)-8-(4-fluorophenyl)-2,12-dimethoxy-5,6,8,9,14,14a-hexahydroindole[3′,2′:4,5]pyridine[2,1-a]isoquinoline], the activity at 5 µM was 116%.

With `COc1ccc2[nH]c3c(c2c1)C[C@@H]1c2cc(OCc4ccc(C(F)(F)F)cc4)c(OC)cc2CCN1C3` [(R)-C3], the activity at 5 µM is 218%.

As to `COc1ccc2[nH]c3c(c2c1)CC1c2cc(OC)c(OCc4cccc(F)c4)cc2CCN1C3` (centres unmarked) [Example C51, 3-((3-Fluorobenzyl)oxo)-2,12-dimethoxy-5,6,8,9,14,14a-hexahydroindole[3′,2′:4,5]pyridine[2,1-a]isoquinoline], the activity at 5 µM stood at 192%.

Turning to `COc1ccc2c(c1)c1c(n2CO)CN2CCc3cc(OCc4ccccc4)c(OC)cc3[C@@H]2C1` [(S)-A55], the activity at 5 µM worked out at 120%.

In the case of `COc1ccc2[nH]c3c(c2c1)C[C@@H]1c2cc(OC)c(OCc4ccc(C(F)(F)F)cc4)cc2CCN1C3` [(R)-C47, (R)-2,12-Dimethoxy-3-((4-(trifluoromethyl)benzyl)oxy)-5,6,8,9,14,14a-hexahydroindolo[3′,2′:4,5]pyrido[2,1-a]isoquinoline], the activity at 5 µM came to 292%.

`COc1ccc2c(c1)c1c(n2CO)CN2CCc3cc(OC)c(OCc4ccc(C)cc4)cc3C2C1` (centres unmarked) [Example A15, (3,12-Dimethoxy-2-((4-methylbenzyl)oxy)-5,6,14,14a-tetrahydroindolo[3′,2′:4,5]pyridine[2,1-a]isoquinoline-9(8H)-yl)methanol]: the activity at 5 µM was 115%.

As for `COc1cccc(COc2cc3c(cc2OC)CCN2C3Cc3c([nH]c4ccc(OC)cc34)C2c2ccc(F)cc2)c1` (centres unmarked) [Example B13, 8-(4-Fluorophenyl)-3,12-dimethoxy-2-((3-methoxybenzyl)oxo)-5,6,8,9,14,14a-hexahydroindolo[3′,2′:4,5]pyridine[2,1-a]isoquinoline], the activity at 5 µM came to 105%.

Take `COc1ccc2c(c1)c1c(n2CO)CN2CCc3cc(OCc4cccc(C)c4)c(OC)cc3C2C1` (centres unmarked) [Example A142, (2,12-Dimethoxy-3-((3-methylbenzyl)oxo)-5,6,14,14a-tetrahydroindolo[3′,2′:4,5]pyridine[2,1-a]isoquinoline-9(8H)-yl)methanol]: the activity at 5 µM came to 108%.

On to `COc1ccc2c(c1)c1c(n2CO)CN2CCc3cc(OC)c(OCc4ccccc4F)cc3C2C1` (centres unmarked) [Example A9, (2-((2-fluorobenzyl)oxy)-3,12-dimethoxy-5,6,14,14a-tetrahydroindolo[3′,2′:4,5]pyridine[2,1-a]isoquinoline-9(8H)-yl)methanol], for which the activity at 5 µM was found to be 113%.

As to `COc1ccc2c(c1)c1c(n2CO)CN2CCc3cc(OC)c(OCc4ccccc4)cc3[C@H]2C1` [(R)-A1], the activity at 5 µM worked out at 185%.

Consider `COc1ccc2[nH]c3c(c2c1)CC1c2cc(OC)c(OCc4cccc(C)c4)cc2CCN1C3` (centres unmarked) [Example C106, 2,12-dimethoxy-3-((3-methylbenzyl)oxo)-5,6,8,9,14,14a-hexahydroindolo[3′,2′:4,5]pyridine[2,1-a]isoquinoline], for which the activity at 5 µM stood at 111%.

`COc1ccc2[nH]c3c(c2c1)C[C@H]1c2cc(OCc4ccc(C(F)(F)F)cc4)c(OC)cc2CCN1C3` [(S)-C3]: the activity at 5 µM came to 111%.

For `COc1ccc2c(c1)c1c(n2CO)CN2CCc3cc(OC)c(OCC(F)(F)F)cc3C2C1` (centres unmarked) [Example A39, (3,12-Dimethoxy-2-(2,2,2-trifluoroethoxy)-5,6,14,14a-tetrahydroindolo[3′,2′:4,5]pyridine[2,1-a]isoquinoline-9(8H)-yl)methanol], the activity at 5 µM was 147%.
